{"source": "patent US12173001B1", "about": "“Pyrido[3,4-e][1,2,4]triazolo[4,3-c]pyrimidines as CK2 inhibitors” (King Faisal University, priority 2024, dated 2024)", "key": {"PC3 (prostate)": {"system": "PC3 (prostate)", "test": "In vitro cytotoxic activity (MTT) assay, PC3", "type": "cell-based", "conditions": "Homo sapiens, Prostate cell, cells exposed for 96 hours, read-out: Cytotoxicity activity IC50 (50% inhibition of cell proliferation)", "description": "(§1) Compounds 1-16 were screened for their in vitro cytotoxic activity utilizing a 3-(4,5-dimethyl-thiazol-2-yl)-2,5-diphenyltetrazolium bromide (MTT) assay against selected cancer human cell lines consisting of PC3 (prostate), HCT116 (colon), A375 (melanoma), H1299 (lung), MIAPaCa-2 (pancreas), HL60 (leukemia), MCF7 (breast), MDA-MB-231 (breast) (T. Mosmann, J. Immunol. Meth., 1983, 65, 55-63). The cells were cultured at 37° C. in RMPI1640 medium supplemented with 10% fetal bovine serum, 50 IU/mL penicillin, and […] streptomycin in a 5% CO2 incubator. All cells were sub-cultured 3 times/week by trypsinization. Viable cells were seeded and allowed to adhere for 12 hours before a test drug was added in 96-well plates at an initial density of 1.0×10^5 cells/mL. Tumor cell lines were separately exposed to various concentrations of the tested compounds followed by incubation at a temperature of 37° C. during 96 hours inside a medium of fresh RMPI 1640. Cells were subsequently incubated at 37° C. using MTT at 0.5 mg/mL during 4 hours. After removal of supernatant, formazan crystals were dissolved in isopropanol and the optical density was measured at 570 nm. CX-4945 was used as a positive control."}, "HCT116 (colon)": {"system": "HCT116 (colon)", "test": "In vitro cytotoxic activity (MTT) assay, HCT116", "type": "cell-based", "conditions": "Homo sapiens, HCT-116, cells exposed for 96 hours, read-out: Cytotoxicity activity IC50 (50% inhibition of cell proliferation)", "description": "as §1"}, "A375 (melanoma)": {"system": "A375 (melanoma)", "test": "In vitro cytotoxic activity (MTT) assay, A375", "type": "cell-based", "conditions": "Homo sapiens, A-375, cells exposed for 96 hours, read-out: Cytotoxicity activity IC50 (50% inhibition of cell proliferation)", "description": "as §1"}, "H1299 (lung)": {"system": "H1299 (lung)", "test": "In vitro cytotoxic activity (MTT) assay, H1299", "type": "cell-based", "conditions": "Homo sapiens, NCI-H1299, cells exposed for 96 hours, read-out: Cytotoxicity activity IC50 (50% inhibition of cell proliferation)", "description": "as §1"}, "MIAPaCa-2 (pancreas)": {"system": "MIAPaCa-2 (pancreas)", "test": "In vitro cytotoxic activity (MTT) assay, MIAPaCa-2", "type": "cell-based", "conditions": "Homo sapiens, MIA PaCa-2, cells exposed for 96 hours, read-out: Cytotoxicity activity IC50 (50% inhibition of cell proliferation)", "description": "as §1"}, "HL60 (leukemia)": {"system": "HL60 (leukemia)", "test": "In vitro cytotoxic activity (MTT) assay, HL60", "type": "cell-based", "conditions": "Homo sapiens, HL-60, cells exposed for 96 hours, read-out: Cytotoxicity activity IC50 (50% inhibition of cell proliferation)", "description": "as §1"}, "MCF7 (breast)": {"system": "MCF7 (breast)", "test": "In vitro cytotoxic activity (MTT) assay, MCF7", "type": "cell-based", "conditions": "Homo sapiens, cells exposed for 96 hours, read-out: Cytotoxicity activity IC50 (50% inhibition of cell proliferation)", "description": "as §1"}, "MDA-MB-231 (breast)": {"system": "MDA-MB-231 (breast)", "test": "In vitro cytotoxic activity (MTT) assay, MDA-MB-231", "type": "cell-based", "conditions": "Homo sapiens, cells exposed for 96 hours, read-out: Cytotoxicity activity IC50 (50% inhibition of cell proliferation)", "description": "as §1"}, "recombinant human CK2": {"target": "T1, recombinant human CK2 (Homo sapiens, UniProt P68400)", "T1 construct": "purchased Millipore", "T1 sequence (P68400 whole entry)": "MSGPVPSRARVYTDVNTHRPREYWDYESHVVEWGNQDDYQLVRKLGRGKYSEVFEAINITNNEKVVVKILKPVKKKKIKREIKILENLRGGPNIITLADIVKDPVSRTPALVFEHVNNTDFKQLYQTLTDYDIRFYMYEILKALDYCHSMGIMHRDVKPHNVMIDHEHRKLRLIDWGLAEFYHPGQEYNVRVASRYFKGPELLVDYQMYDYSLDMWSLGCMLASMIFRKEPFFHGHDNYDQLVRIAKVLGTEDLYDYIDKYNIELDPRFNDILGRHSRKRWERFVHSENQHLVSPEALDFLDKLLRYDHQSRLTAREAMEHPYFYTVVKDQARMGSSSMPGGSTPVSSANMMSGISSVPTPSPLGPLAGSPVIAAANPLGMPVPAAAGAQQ", "T1 sequence (P67870 whole entry partner)": "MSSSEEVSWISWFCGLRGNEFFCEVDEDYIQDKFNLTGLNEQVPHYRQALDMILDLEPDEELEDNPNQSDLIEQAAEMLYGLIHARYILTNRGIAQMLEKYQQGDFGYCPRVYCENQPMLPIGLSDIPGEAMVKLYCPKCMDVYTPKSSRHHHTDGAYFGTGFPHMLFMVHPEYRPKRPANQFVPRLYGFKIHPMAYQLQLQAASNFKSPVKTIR", "test": "CK2 Kinase Assay (33P-ATP, filter plate)", "type": "biochemical", "conditions": "final ATP concentration 15 μM, 10 min at 30° C.; read-out: protein kinase CK2 activity IC50", "description": "CK2 Kinase Assay was conducted using the protocol as described in Pierre F. et al; J. Med. Chem. 2011, 54, 635-654. The tested compounds in aqueous solution were added at a volume of 10 μL to a reaction mixture comprising 10 μL of assay dilution buffer (ADB; 20 mM MOPS, pH 7.2, 25 mM β-glycerol phosphate, 5 mM EGTA, 1 mM sodium orthovanadate, and 1 mM dithiothreitol), 10 μL of substrate peptide (RRRDDDSDDD (SEQ 1), dissolved in ADB at a concentration of 1 mM), 10 μL of recombinant human CK2 (RROP-holoenzyme, 25 ng dissolved in ADB; Millipore). Reactions were initiated by the addition of 10 μL of ATP solution (90% 75 mMMgCl2, 75 μM ATP (final ATP concentration: 15 μM) dissolved in ADB; 10% [γ-33P] ATP (stock 1mCi/100 μL; 3000 Ci/mmol (Perkin-Elmer) and maintained for 10 min at 30° C. The reactions were quenched with 100 μL of 0.75% phosphoric acid and then transferred to and filtered through a phosphor cellulose filter plate (Millipore). After washing each well five times with 0.75% phosphoric acid, the plate was dried under vacuum for 5 min and, following the addition of 15 μL of scintillation fluid to each well, the residual radioactivity was measured using a Wallac luminescence counter. The IC50 values were derived from eight concentrations of test inhibitors."}}, "data": [{"smiles": "O=C(O)c1nnc2c3cnccc3nc(Nc3cccc(Cl)c3)n12", "note": "[Compound 1, 5-((3-chlorophenyl)amino)pyrido[3,4-e][1,2,4]triazolo[4,3-c]pyrimidine-3-carboxylic acid]", "values": [{"measurement": "IC50", "setting": "PC3 (prostate)", "result": 1.5, "unit": "µM"}, {"measurement": "IC50", "setting": "HCT116 (colon)", "result": 2.8, "unit": "µM"}, {"measurement": "IC50", "setting": "A375 (melanoma)", "result": 5.4, "unit": "µM"}, {"measurement": "IC50", "setting": "H1299 (lung)", "result": 3.1, "unit": "µM"}, {"measurement": "IC50", "setting": "MIAPaCa-2 (pancreas)", "result": 1.3, "unit": "µM"}, {"measurement": "IC50", "setting": "HL60 (leukemia)", "result": 5.8, "unit": "µM"}, {"measurement": "IC50", "setting": "MCF7 (breast)", "result": 4.9, "unit": "µM"}, {"measurement": "IC50", "setting": "MDA-MB-231 (breast)", "result": 4.5, "unit": "µM"}, {"measurement": "IC50", "setting": "recombinant human CK2", "result": 0.032, "unit": "µM"}]}]}
